# What was measured:
# [1] = system: human articular chondrocytes from osteoarthritic (OA) cartilage; experiment: Aggrecan synthesis by OA chondrocytes in alginate beads (ELISA of interterritorial matrix); type: cell-based; conditions: 5 μg/ml, 5 culture days
# Excerpt: (§1) Human articular chondrocytes were isolated as described in J. Tissue Culture Methods (1993) 15:139-146). Briefly, human articular cartilage was obtained at total knee replacement surgery from femoral condyles and the tibial plateau of 15 different donors. None of them had received corticosteroids or cytostatic drugs. Both visually intact and fibrillated OA cartilage samples were harvested separately and only OA cartilage was used for cell culture. The cartilage samples were diced into small fragments and the chondrocytes were isolated by sequential enzymatic digestion (hyaluronidase, pronase and collagenase) of the extracellular matrix (ECM) as described in Osteoarthritis Cartilage (2001) 9:73-84. Isolated cells were then centrifuged for 10 minutes at 1500 rpm, washed three times in Dulbecco's Modified Eagle's Medium (DMEM) with 10% (v/v) fetal calf serum, and counted with trypan blue to exclude dead cells. More than 90% of the cells were viable after isolation.
# (§2) Chondrocytes were cultured in alginate beads, to maintain their differentiated phenotype. The cultures were prepared as described in Connect Tissue Res. (1989) 19:277-297. Chondrocytes suspended in one volume of double-concentrated Hank's Balanced Salts Solution (HBSS, commercially available from Gibco) without calcium and magnesium were carefully mixed with an equal volume of 2% (w/v) autoclaved alginate (low-viscosity alginate from Macrocystis pyrifera, commercially available from Sigma) in HBSS. The final cell concentration was 5×10^6 chondrocytes per ml in 1% alginate. The chondrocyte/alginate suspension was then slowly dripped through a 23-gauge needle into a 102 mM calcium chloride solution. […]
# (§3) To study the impact of the changes in the chondrocyte cultures after cyclodextrin polysulfate treatment, mean IL-6 and aggrecan concentrations were calculated from triplicate chondrocyte cultures of each donor. […] Evolution of mouse weight over time was analysed by longitudinal data analysis methods, more specific by area under the curve and mixed model analysis. […]
# [2] = system: human articular chondrocytes from osteoarthritic (OA) cartilage; experiment: IL-6 release by OA chondrocytes in alginate beads; type: cell-based; conditions: 5 μg/ml, 5 culture days
# Excerpt: as §1, §2, §3
# thrombin clotting = conditions: in vitro; cited from earlier work
# normal pooled plasma = experiment: Blood coagulation activities (aPTT, PT, fibrinogen) in normal pooled plasma; parameters: species or system human; conditions: after incubation with 50 or 100 μg/ml
# Experimental: MA-CDPS, HP-CDPS, CE-CDPS and CDPS (as defined in examples 3-4 and characterised in table 1) were prepared as buffered solutions at various concentrations. The polysaccharides were incubated with normal pooled plasma prepared out of 40 healthy volunteers and analyzed for their effects on activated partial thromboplastin time (aPTT), prothrombin time (PT) and fibrinogen levels on a STA Compact® coagulation analyzer (available from Diagnostica Stago, Asnieres, France) according to the manufacturers instructions.
# [3] = system: rabbit model of experimental osteoarthritis (OA); conditions: subcutaneously administered; cited from earlier work
# [4] = system: healthy donor thrombocytes; experiment: Platelet activation (CD62p, flow cytometry) by HIT patient anti-heparin/PF4 antibodies; type: cell-based, human; conditions: for ratio: % CD62p+ (with substance)/% CD62p+ (without) / ΔCD62p+ %: percentage increases in CD62p positive platelets: 0.3 IU heparin or 5 μg/ml polysaccharide
# Experimental: The activation of healthy donor thrombocytes by HIT patient anti-heparin/PF4 antibodies in the presence of heparin and the differently sulfated forms of β-cyclodextrin was tested. […] The expression of CD62p by the activated platelets was assayed by means of flow cytometry with a FC500 analyzer (available from Beckman Coulter, Belgium). Platelet-rich plasma solution (PRP) was prepared by slow centrifugation (10 minutes at 180 g) of fresh citrate anti-coagulated blood (1:9 v/v, 0.129 mol/L or 3.8% trisodium citrate buffer), obtained from normal donors. HIT Ab positive plasma samples from patients and HIT Ab negative control plasma from healthy donors were prepared by double centrifugation (15 minutes at 2230 rpm) of fresh citrate anti-coagulated blood. 70 μl of PRP was incubated with 20 μL of HIT Ab containing plasma optionally in the presence of heparin (0.3 IU/ml) or the relevant β-cyclodextrin derivative (5 μg/ml). Experiments with each HIT Ab positive plasma sample were repeated independently using thrombocytes of 2 donors (A and B), to avoid the possibility of non-reactive platelets.
# Following the initial 40 minutes incubation step, 5 μl of the platelets solution was transferred to a fresh tube with 85 μL phosphate buffered saline (PBS) containing 1% bovine serum albumin (BSA) and 0.1% Na-azide, 5 μl (0.25 μg) monoclonal anti-CD41 antibodies (Ab) (phycoerythrin-Texas Red Energy coupled dye (ECD)-conjugated, Beckman Coulter) and 5 μl (0.125 μg) of anti-CD62p Ab (phycoerythrin (PE)-conjugated, Beckman Coulter). CD41 (Glycoprotein […]) is a selective marker of platelets and platelet precursors. CD62p is a constituent of alpha granules and is released to the platelet surface on activation.
# After 20 minutes of incubation at room temperature, the total volume of the platelet suspension was adjusted to 600 μL buffered solution and evaluated without delay by flow cytometry. 20,000 events per sample were analysed and the platelet populations were gated by side scatter characteristics and the platelet marker CD41. The fraction of activated platelets among the total platelet population was determined and relative CD62p ratios to the internal controls were calculated. [ratio: % CD62p^+ (0.3 IU Heparine or 5 μg/ml β-cyclodextrin derivative)/% CD62p^+ (0 IU Heparine or 0 μg/ml β-cyclodextrin derivative)]. Test results for the heparin treated platelets were evaluated by the scoring system described in Thromb. Haemost. (1999) 82:1255-1259. Control tests were scored positive when the calculated ratios of at least 2 donors were more then 2, based on previously obtained results with normal individuals. To evaluate the potential of the different β-cyclodextrin derivatives to induce platelet activation, both the percentages and ratios of CD62p^+ platelets after incubation with the respective β-cyclodextrin were statistically compared to the percentage and the ratio of CD62p^+ platelets after heparin incubation.
# [5] = HIT ab plasma pat1, platelet donor dA
# [6] = HIT ab plasma pat1, platelet donor dB
# [7] = HIT ab plasma pat2, platelet donor dB
# [8] = HIT ab plasma pat3, platelet donor dA
# [9] = HIT ab plasma pat3, platelet donor dB
# [10] = HIT ab plasma pat4, platelet donor dA
# [11] = HIT ab plasma pat4, platelet donor dB
molecule,measurement,setting,value
"2,3-di-O-methyl-6-sulfate-β-cyclodextrin [ME-CD-6-S]",effect on chondrocyte aggrecan synthesis,[1],failed to affect
same,effect on chondrocyte IL-6 release/secretion,[2],failed to affect
"2,6-di-O-methyl-3-sulfate-β-cyclodextrin [ME-CD-3-S]",effect on chondrocyte aggrecan synthesis,[1],failed to affect
same,effect on chondrocyte IL-6 release/secretion,[2],failed to affect
"COC[C@H]1O[C@@H]2O[C@H]3[C@H](OC)[C@@H](OC)[C@@H](O[C@H]4[C@H](OC)[C@@H](OC)[C@@H](O[C@H]5[C@H](OC)[C@@H](OC)[C@@H](O[C@H]6[C@H](OC)[C@@H](OC)[C@@H](O[C@H]7[C@H](OC)[C@@H](OC)[C@@H](O[C@H]8[C@H](OC)[C@@H](OC)[C@@H](O[C@H]1[C@H](OC)[C@H]2OC)O[C@@H]8COC)O[C@@H]7COC)O[C@@H]6COC)O[C@@H]5COC)O[C@@H]4COC)O[C@@H]3COC [ME-CD, 2,3,6-tri-O-methyl-β-cyclodextrin]",effect on chondrocyte aggrecan synthesis,[1],failed to promote
same,effect on chondrocyte IL-6 release/secretion,[2],failed
β-cyclodextrin polysulfate [CDPS],thrombin clotting times,thrombin clotting,prolongation
same,thrombus formation,thrombin clotting,reduction
same,fibrinogen concentrations,normal pooled plasma,Minor decreases
same,cartilage lesions and osteocyte formation in the affected joints,[3],reduced
same,ratio: % CD62p+ (with substance)/% CD62p+ (without),[4]; [5],5.8
same,ΔCD62p+ %: percentage increases in CD62p positive platelets,[4]; [5],76.1%
same,ratio: % CD62p+ (with substance)/% CD62p+ (without),[4]; [6],6.5
same,ΔCD62p+ %: percentage increases in CD62p positive platelets,[4]; [6],73.1%
same,ΔCD62p+ %: percentage increases in CD62p positive platelets,"[4]; HIT ab plasma pat2, platelet donor dA",27.5%
same,ratio: % CD62p+ (with substance)/% CD62p+ (without),[4]; [7],0.7
same,ΔCD62p+ %: percentage increases in CD62p positive platelets,[4]; [7],−2.8%
same,ratio: % CD62p+ (with substance)/% CD62p+ (without),[4]; [8],2.5
same,ΔCD62p+ %: percentage increases in CD62p positive platelets,[4]; [8],42.7%
same,ratio: % CD62p+ (with substance)/% CD62p+ (without),[4]; [9],7.0
same,ΔCD62p+ %: percentage increases in CD62p positive platelets,[4]; [9],34.1%
same,ratio: % CD62p+ (with substance)/% CD62p+ (without),[4]; [10],4.4
same,ΔCD62p+ %: percentage increases in CD62p positive platelets,[4]; [10],63.5%
same,ratio: % CD62p+ (with substance)/% CD62p+ (without),[4]; [11],2.5
same,ΔCD62p+ %: percentage increases in CD62p positive platelets,[4]; [11],58.1%
same,platelet activation,[4]; in the presence of plasma samples of individuals that had developed HIT Ab,induced platelet activation

# Source: patent US20110172182A1, “Carboxyethylated Cyclodextrin Polysulfates Useful As Medicaments” (ARCARIOS B.V., priority 2008, published 2011)
